Measurements: patent US20230331792A1, “NEW MULTI-FUNCTIONAL OLIGOPEPTIDES” (ENLITISA (SHANGHAI) PHARMACEUTICAL CO., LTD., priority 2019, published 2023)
Square brackets hold non-standard residues; d marks the D form. Ends that are not written are not given here. Dopa = N[C@@H](Cc1ccc(O)c(O)c1)C(=O)O; Hyp = O=C(O)[C@@H]1C[C@@H](O)CN1

System: SD rats
Experiment: Experimental gastric ulcer model (anhydrous alcohol)
Format: in vivo
Procedure: SPF grade SD rats were used in this experiment, with 10 rats in each group. According to an evaluation method of health food for gastric ulcer issued by Chinese State Food and Drug Administration, the protective effect of Compound B on acute gastric ulcers induced by anhydrous alcohol was observed after continuous gavage for 30 days.
Omeprazole enteric-coated capsules (20 mg/capsule; Heilongjiang Norgas Pharmaceutical Co., Ltd., China) were opened and the powder was dissolved in water to make a 2 mg/mL solution. Compound B (see Example 7 above) powder was dissolved in water to make two solutions with concentrations of 0.25 mg/mL and 0.75 mg/mL. Administration volumes were […].
All drugs were administrated as shown in Table 13 by oral gavage for 30 consecutive days, once per day. The rats had free access to water. On the 30th day, rats were fasted for 24 hours after the last drug administration. On the 31st day, 1.0 mL/rat of absolute ethanol was given by gavage to each rat in all of the experimental groups except the control group.
1 hour later, all of the rats were sacrificed and dissected to expose the intact stomach, followed by ligation of the pylorus. 10% formaldehyde solution was administered into the stomach by perfusion and fixed for 20 minutes. The stomach was dissociated after fixation and cut open along the greater curvature. The stomach contents were washed off the lining with saline to reveal the gastric mucosa.
The length and width of gastric mucosal bleeding were measured with a Vernier calliper under a stereo microscope or by the naked eye.

## {[(Ala-Lys-Pro-Ser-Tyr-Hyp-Hyp-Thr-DOPA-Lys)2-Lys]2-Lys}2-Lys (AKPSY[Hyp][Hyp]T[Dopa]KKKK; also: branched lysine dendrimer {[(peptide)2-Lys]2-Lys}2-Lys) [Compound B]
0.25 mg/mL, 0.5 mg/kg oral gavage once per day for 30 days
  Damage score: 24
0.75 mg/mL, 1.5 mg/kg oral gavage once per day for 30 days
  Damage score: 18
0.5 and 1.5 mg/kg
  effect on gastric bleeding induced by alcohol: may reduce gastric bleeding induced by alcohol
